These results are taken from patent US20260248924A1, “MITOCHONDRIA-TARGETED AGENTS FOR DISEASE PREVENTION AND TREATMENT” (THE METHODIST HOSPITAL, priority 2023, published 2026).

The conditions of data set [1]: rat, in vivo; cited from earlier work.
Data set [2] has as its system lung tumorigenesis induced by benzo(a)pyrene. The settings on record: in vivo; cited from earlier work.
For data set [3], the system named is B(a)P-induced lung tumors. The data set is described as follows: B(a)P-induced lung tumorigenesis, post-initiation model. In kind it is in vivo, A/J mice. Conditions: 100 μmol/kg, 5 days/week, 20 weeks.
For data set [4] the following is noted: human, in vivo; cited from earlier work.
Data set [5] concerns H2030-BrM3 cells. The data set is described as follows: Lung cancer brain metastasis model (left ventricle injection). The settings on record: PEITC at 25-fold higher dose (printed 100 mol/kg), oral gavage. In kind it is in vivo, NOD/SCID mice.
Method: Mice were imaged for luciferase expression as a marker of tumor growth, using an IVIS 100 imaging system, over five weeks after cell injection. Regions of interest were defined manually, and LivingImage and Igor software was used to determine total photon flux.
For the brain metastasis studies, female NOD/SCID mice (age 5 weeks) were used. H2030-BrM3 cells (2×10^5) were suspended in PBS (0.1 mL) and injected into the left ventricle under ultrasound guidance (ECHO 707, GE, Milwaukee, WI). […] Mice were treated by oral gavage 5 days per week and metastases were monitored periodically by bioluminescence. Mice were euthanized at day 28 after the arterial injection of tumor cells.
Data set [6] has as its system H2030-BrM3 cells. Description: Orthotopic model of lung adenocarcinoma. In kind it is in vivo, nude mice. The settings on record: 4 μmol/kg, oral gavage 5 days/week for 3 weeks. The protocol: An orthotopic model of lung adenocarcinoma cells (H2030-BrM3 cells) in athymic nude mice was used. Nude mice (5 weeks old) were anesthetized with isoflurane and placed in the right lateral decubitus position. A total of 1×10^6 H2030-BrM3 cells in […] of growth factor reduced Matrigel in 50 μL of RPMI1640 medium were injected into the left lung through the left rib cage. […] Tumor growth and metastases were monitored over time by bioluminescence (after injection of D-luciferin, 150 μg/g) using Lumina IVIS 100 imager (Perkin Elmer, Waltham, MA). Mice were euthanized on day 28.
A study using an orthotopic model of lung adenocarcinoma in nude mice was conducted. H2030-BrM3 cells were injected into the lung. […] PEITC was not effective, as expected, because the applied dose (4 μmol/kg) is below the levels typically used in xenograft studies (Zhang, Q., et al., Mol Carcinog, 2020. 59(6): p. 590-603).

A further data set has as its system VC-induced lung tumors. Description: VC-induced lung tumorigenesis study. Conditions: 100 μmol/kg, oral gavage 5 days/week for 20 weeks. In kind it is in vivo, A/J mice.
Data set [7] has as its system lung adenocarcinoma (LUAD) cell lines (H2030-BrM3, LKR-13). Description: Cellular proliferation assay (IncuCyte cell confluence), PEITC vs Mito-PEITC. The settings on record: Homo sapiens, real-time cell confluence, both LUAD cell lines tested, read-out: IC50, inhibition of proliferation. In kind it is cell-based.
The conditions of data set [8]: in vivo; cited from earlier work.

“Also recorded” adds a separate entry of the source.

Method for VC-induced lung tumors: Six-week-old female A/J mice were injected with VC (single i.p. dose, 16 mg/kg). […] Treatments were administered by oral gavage five times per week. After 18 weeks of treatment, the mice were euthanized. […] The rest of lungs were evaluated under a dissecting microscope to obtain the surface tumor count and individual tumor diameter. Tumor volume was calculated based on the formula V=4πr(3)/3. Tumor load (the total tumor volume in each mouse) was calculated from the sum of all tumors.

For the compound `S=C=NCCc1ccccc1` [PEITC, phenethyl isothiocyanate], in data set [1], the “toxicity for female rats” value was “extremely low toxicity”. Besides, the “efficacy against lung tumorigenesis induced by benzo(a)pyrene” value in [2] is “not effective”. Besides, in [3], the “B(a)P-induced lung tumor development” value was “ineffective”. In addition, in [4], the “safety in clinical trial” value is “safe”. For the same compound, the “effect on lung cancer brain metastasis” value in the data set with H2030-BrM3 cells [5] is “ineffective; also recorded: does not inhibit brain metastasis”. Moreover, the “effect on orthotopic lung tumor growth” value with H2030-BrM3 cells [6] is listed as “not effective”. Besides, the “VC-induced lung tumor development” value in the data set on VC-induced lung tumors is “ineffective”. Moreover, in data set [7], the IC50 was found to be 12 µM. In addition, in data set [8], the blood-brain barrier passage entry is “crosses the blood-brain barrier” and the plasma protein binding result is reported as “high”.
